Reference: publication PMC6576746, “Rational discovery of dual-indication multi-target PDE/Kinase inhibitor for precision anti-cancer therapy using structural systems pharmacology” (PLoS Computational Biology, 2019)

Key:
Experiment in all cases: biochemical
Set-up in all cases: DiscoverX KinomeScan competition binding assay across human kinases; per cent of control at 10 and 100 uM
ABL1-nonphosphorylated = molecular target: T1, ABL1-nonphosphorylated (Homo sapiens, UniProt P00519); conditions: competition binding, % of control
T1 construct: nonphosphorylated
T1 sequence (P00519 whole entry): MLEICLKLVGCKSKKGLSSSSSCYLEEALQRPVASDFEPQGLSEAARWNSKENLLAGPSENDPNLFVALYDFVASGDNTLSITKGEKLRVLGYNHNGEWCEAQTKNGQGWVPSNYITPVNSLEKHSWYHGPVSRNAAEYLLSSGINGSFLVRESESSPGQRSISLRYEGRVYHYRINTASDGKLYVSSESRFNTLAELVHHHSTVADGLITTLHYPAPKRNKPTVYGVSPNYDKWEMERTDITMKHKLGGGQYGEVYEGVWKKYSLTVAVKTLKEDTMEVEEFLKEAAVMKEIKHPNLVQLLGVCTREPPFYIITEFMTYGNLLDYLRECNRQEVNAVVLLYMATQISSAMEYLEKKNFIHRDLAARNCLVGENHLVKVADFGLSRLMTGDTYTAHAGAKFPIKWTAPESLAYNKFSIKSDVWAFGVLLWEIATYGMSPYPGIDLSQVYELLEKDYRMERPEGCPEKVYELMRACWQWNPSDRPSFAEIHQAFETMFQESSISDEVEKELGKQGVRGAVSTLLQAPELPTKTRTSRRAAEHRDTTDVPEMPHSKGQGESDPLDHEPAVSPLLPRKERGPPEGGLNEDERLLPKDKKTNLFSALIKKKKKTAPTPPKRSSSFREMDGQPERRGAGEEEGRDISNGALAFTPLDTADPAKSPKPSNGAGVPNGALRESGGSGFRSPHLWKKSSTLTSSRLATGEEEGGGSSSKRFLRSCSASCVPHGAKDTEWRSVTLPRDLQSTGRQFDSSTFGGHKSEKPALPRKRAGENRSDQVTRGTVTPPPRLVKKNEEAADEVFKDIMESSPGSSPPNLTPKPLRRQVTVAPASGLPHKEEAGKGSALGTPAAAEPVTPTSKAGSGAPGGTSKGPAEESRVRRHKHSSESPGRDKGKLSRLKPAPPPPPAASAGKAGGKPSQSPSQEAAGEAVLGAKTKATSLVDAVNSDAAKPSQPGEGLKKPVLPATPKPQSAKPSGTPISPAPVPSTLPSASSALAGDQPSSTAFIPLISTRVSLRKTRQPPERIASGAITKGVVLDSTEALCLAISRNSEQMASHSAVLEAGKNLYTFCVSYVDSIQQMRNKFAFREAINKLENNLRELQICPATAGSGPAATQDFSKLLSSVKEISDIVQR
Procedure, shortened: (§1)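 KinomeScan competition binding was run across a human kinase panel at 10 μM and 100 μM levosimendan. Results are %control = (test − positive control)/(negative control − positive control) × 100.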

AKT2 = AKT2 (Homo sapiens, UniProt P31751); conditions: competition binding, % of control; read-out: Percent Control (100 uM Levosimendan)
Procedure, shortened: as §1

CDK2 = CDK2 (Homo sapiens, UniProt P24941); conditions: competition binding, % of control; read-out: Percent Control (100 uM Levosimendan)
Procedure, shortened: as §1

CDKL3 = CDKL3 (Homo sapiens, UniProt Q8IVW4); conditions: competition binding, % of control; read-out: Percent Control (100 uM Levosimendan)
Procedure, shortened: as §1

DRAK1 = molecular target: T2, DRAK1 (Homo sapiens, UniProt Q9UEE5); conditions: competition binding, % of control
T2 construct: gene STK17A
T2 sequence (Q9UEE5 whole entry): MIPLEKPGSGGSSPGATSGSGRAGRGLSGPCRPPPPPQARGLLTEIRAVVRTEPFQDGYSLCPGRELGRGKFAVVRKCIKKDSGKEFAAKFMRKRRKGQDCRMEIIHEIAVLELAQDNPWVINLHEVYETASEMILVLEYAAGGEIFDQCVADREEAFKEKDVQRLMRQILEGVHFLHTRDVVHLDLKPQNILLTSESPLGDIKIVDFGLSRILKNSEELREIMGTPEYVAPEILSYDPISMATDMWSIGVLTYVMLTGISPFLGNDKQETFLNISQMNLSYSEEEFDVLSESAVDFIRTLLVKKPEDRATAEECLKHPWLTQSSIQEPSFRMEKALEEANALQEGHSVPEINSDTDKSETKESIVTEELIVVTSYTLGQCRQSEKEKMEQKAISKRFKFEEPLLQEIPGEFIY
Procedure, shortened: as §1

ERBB2 = ERBB2 (Homo sapiens, UniProt P04626); conditions: competition binding, % of control; read-out: Percent Control (100 uM Levosimendan)
Procedure, shortened: as §1

HIPK2 = HIPK2 (Homo sapiens, UniProt Q9H2X6); conditions: competition binding, % of control; read-out: Percent Control (100 uM Levosimendan)
Procedure, shortened: as §1

[1] = molecular target: T3, JAK2(JH1domain-catalytic) (Homo sapiens, UniProt O60674); conditions: competition binding, % of control
T3 construct: JH1domain-catalytic
T3 sequence (O60674 whole entry): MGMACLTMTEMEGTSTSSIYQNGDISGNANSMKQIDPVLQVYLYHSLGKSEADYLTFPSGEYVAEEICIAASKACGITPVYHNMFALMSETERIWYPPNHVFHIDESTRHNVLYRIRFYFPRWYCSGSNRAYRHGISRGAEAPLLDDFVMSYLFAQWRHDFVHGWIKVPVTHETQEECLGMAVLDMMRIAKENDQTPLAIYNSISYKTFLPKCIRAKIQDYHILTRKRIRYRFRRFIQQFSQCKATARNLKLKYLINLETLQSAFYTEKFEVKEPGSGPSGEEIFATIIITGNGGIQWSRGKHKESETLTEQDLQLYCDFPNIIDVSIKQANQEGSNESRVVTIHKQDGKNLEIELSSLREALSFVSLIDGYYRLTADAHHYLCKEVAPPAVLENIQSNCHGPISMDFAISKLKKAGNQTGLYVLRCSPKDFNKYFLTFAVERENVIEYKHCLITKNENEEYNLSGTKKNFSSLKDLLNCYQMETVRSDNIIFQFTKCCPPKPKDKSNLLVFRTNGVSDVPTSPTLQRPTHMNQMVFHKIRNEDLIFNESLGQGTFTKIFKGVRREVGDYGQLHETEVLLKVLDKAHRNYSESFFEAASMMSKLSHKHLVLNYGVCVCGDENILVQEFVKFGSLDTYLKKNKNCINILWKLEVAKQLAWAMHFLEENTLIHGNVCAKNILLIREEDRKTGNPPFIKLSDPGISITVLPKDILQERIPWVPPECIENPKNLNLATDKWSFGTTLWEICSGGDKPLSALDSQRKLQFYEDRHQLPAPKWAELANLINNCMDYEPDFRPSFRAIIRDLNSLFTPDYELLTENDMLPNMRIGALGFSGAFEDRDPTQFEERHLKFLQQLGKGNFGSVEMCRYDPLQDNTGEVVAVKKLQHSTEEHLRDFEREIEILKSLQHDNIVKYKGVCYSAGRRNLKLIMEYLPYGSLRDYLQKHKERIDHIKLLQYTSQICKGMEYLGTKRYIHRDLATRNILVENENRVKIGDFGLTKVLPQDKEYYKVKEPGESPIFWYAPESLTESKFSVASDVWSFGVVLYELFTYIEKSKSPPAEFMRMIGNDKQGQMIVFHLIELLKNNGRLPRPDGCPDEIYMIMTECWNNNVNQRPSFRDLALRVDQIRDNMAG
Procedure, shortened: as §1

MAK = MAK (Homo sapiens, UniProt P20794); conditions: competition binding, % of control; read-out: Percent Control (100 uM Levosimendan)
Procedure, shortened: as §1

MEK1 = molecular target: T4, MEK1 (Homo sapiens, UniProt Q02750); conditions: competition binding, % of control; read-out: Percent Control (100 uM Levosimendan)
T4 construct: gene MAP2K1
Procedure, shortened: as §1

MINK = molecular target: T5, MINK (Homo sapiens, UniProt Q8N4C8); conditions: competition binding, % of control
T5 construct: gene MINK1
T5 sequence (Q8N4C8 whole entry): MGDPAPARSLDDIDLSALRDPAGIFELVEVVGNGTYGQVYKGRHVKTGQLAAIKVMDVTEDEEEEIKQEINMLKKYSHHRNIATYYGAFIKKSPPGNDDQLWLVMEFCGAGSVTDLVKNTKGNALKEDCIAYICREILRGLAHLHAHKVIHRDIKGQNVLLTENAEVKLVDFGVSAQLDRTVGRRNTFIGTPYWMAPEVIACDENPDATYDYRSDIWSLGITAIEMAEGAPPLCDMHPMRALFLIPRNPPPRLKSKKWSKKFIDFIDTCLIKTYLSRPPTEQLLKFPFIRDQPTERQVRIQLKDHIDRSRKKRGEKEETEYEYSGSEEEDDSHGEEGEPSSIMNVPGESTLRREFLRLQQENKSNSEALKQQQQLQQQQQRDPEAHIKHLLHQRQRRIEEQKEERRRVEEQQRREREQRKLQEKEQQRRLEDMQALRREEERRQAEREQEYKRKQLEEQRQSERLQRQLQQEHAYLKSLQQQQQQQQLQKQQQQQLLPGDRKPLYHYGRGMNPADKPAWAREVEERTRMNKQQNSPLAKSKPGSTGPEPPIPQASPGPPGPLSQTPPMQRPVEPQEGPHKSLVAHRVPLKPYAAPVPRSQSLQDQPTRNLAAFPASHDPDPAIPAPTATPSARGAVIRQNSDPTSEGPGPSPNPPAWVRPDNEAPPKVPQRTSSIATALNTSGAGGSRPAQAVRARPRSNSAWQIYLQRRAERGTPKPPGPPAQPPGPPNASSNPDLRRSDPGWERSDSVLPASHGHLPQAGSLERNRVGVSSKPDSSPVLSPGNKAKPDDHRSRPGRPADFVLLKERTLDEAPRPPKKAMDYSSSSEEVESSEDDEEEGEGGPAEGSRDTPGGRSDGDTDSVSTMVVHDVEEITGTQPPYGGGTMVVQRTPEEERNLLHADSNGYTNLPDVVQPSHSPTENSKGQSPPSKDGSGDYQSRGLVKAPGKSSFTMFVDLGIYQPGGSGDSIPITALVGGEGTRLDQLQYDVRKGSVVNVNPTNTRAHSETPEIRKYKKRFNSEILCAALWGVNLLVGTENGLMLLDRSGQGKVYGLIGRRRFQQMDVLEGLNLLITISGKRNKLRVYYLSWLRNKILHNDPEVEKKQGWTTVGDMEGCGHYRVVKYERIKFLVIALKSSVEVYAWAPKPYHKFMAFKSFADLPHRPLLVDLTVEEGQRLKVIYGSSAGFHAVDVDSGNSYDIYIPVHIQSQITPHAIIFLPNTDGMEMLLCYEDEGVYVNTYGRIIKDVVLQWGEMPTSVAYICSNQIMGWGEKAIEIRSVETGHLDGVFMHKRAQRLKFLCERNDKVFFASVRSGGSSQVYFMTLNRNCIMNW
Procedure, shortened: as §1

PIK3C2G = PIK3C2G (Homo sapiens, UniProt O75747); conditions: competition binding, % of control; read-out: Percent Control (100 uM Levosimendan)
Procedure, shortened: as §1

PIM1 = PIM1 (Homo sapiens, UniProt P11309); conditions: competition binding, % of control; read-out: Percent Control (100 uM Levosimendan)
Procedure, shortened: as §1

PIM2 = PIM2 (Homo sapiens, UniProt Q9P1W9); conditions: competition binding, % of control
Sequence of PIM2 (Q9P1W9 whole entry): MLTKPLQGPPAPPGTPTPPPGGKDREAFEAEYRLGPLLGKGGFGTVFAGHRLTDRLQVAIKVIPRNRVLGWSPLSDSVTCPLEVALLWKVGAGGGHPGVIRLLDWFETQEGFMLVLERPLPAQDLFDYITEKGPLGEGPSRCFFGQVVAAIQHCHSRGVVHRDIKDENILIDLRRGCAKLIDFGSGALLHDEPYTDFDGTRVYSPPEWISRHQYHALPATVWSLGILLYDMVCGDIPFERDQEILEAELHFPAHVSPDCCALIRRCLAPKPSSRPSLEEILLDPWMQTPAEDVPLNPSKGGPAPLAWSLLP
Procedure, shortened: as §1

RET(V804M) = RET(V804M) (Homo sapiens, UniProt P07949, V804M); conditions: competition binding, % of control; read-out: Percent Control (100 uM Levosimendan)
Procedure, shortened: as §1

[2] = molecular target: T6, RSK2(Kin.Dom.1-N-terminal) (Homo sapiens, UniProt P51812); conditions: competition binding, % of control
T6 construct: gene RPS6KA3; Kin.Dom.1-N-terminal
T6 sequence (P51812 whole entry): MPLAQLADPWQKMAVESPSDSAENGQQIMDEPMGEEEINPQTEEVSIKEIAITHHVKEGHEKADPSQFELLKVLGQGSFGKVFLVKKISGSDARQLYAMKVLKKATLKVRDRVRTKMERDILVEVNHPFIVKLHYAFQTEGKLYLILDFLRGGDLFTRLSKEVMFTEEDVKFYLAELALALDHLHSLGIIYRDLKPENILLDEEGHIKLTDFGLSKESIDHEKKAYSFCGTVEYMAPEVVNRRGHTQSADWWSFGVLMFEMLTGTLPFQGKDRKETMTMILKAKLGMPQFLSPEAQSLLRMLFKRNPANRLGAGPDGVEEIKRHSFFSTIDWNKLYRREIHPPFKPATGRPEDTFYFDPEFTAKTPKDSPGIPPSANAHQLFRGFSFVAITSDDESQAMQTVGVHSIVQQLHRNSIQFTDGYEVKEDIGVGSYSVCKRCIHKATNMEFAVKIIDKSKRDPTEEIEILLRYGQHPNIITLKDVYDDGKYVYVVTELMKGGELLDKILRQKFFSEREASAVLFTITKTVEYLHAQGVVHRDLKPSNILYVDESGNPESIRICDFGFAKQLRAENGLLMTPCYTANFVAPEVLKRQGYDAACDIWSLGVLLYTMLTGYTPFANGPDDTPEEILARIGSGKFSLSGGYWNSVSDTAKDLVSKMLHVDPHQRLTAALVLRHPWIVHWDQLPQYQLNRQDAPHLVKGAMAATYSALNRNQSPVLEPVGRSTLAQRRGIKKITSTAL
Procedure, shortened: as §1

TEC = TEC (Homo sapiens, UniProt P42680); conditions: competition binding, % of control; read-out: Percent Control (100 uM Levosimendan)
Procedure, shortened: as §1

WNK1 = WNK1 (Homo sapiens, UniProt Q9H4A3); conditions: competition binding, % of control; read-out: Percent Control (100 uM Levosimendan)
Procedure, shortened: as §1

[3] = read-out: Percent Control (10 uM Levosimendan)
[4] = read-out: Percent Control (100 uM Levosimendan)

remaining binding at 10 µM (ABL1-nonphosphorylated; [3]): 94%
remaining binding at 100 µM (ABL1-nonphosphorylated; [4]): 49%
remaining binding at 100 µM (AKT2): 64%
remaining binding at 100 µM (CDK2): 97%
remaining binding at 100 µM (CDKL3): 100%
remaining binding at 10 µM (DRAK1; [3]): 87%
remaining binding at 100 µM (DRAK1; [4]): 22%
remaining binding at 100 µM (ERBB2): 100%
remaining binding at 100 µM (HIPK2): 69%
remaining binding at 10 µM [1, 3]: 88%
remaining binding at 100 µM [1, 4]: 49%
remaining binding at 100 µM (MAK): 100%
remaining binding at 100 µM (MEK1): 85%
remaining binding at 10 µM (MINK; [3]): 77%
remaining binding at 100 µM (MINK; [4]): 26%
remaining binding at 100 µM (PIK3C2G): 100%
remaining binding at 100 µM (PIM1): 64%
remaining binding at 10 µM (PIM2; [3]): 84%
remaining binding at 100 µM (PIM2; [4]): 20%
remaining binding at 100 µM (RET(V804M)): 80%
remaining binding at 10 µM [2, 3]: 85%
remaining binding at 100 µM [2, 4]: 35%
remaining binding at 100 µM (TEC): 74%
remaining binding at 100 µM (WNK1): 100%
SMILES: C[C@@H]1CC(=O)NN=C1c1ccc(NN=C(C#N)C#N)cc1 [levosimendan]
